Assay results published in US12146004B2, “Polymyxin compounds and uses thereof” (priority 2014, dated 2024).
Converted amounts (≈) assume the structure as drawn. Bridge positions count the residues as written; N and C are the ends. Square brackets hold non-standard residues; d marks the D form. Peptide text beside a SMILES is read from it. * marks the point of attachment. ξ: configuration not given here. dBip = N[C@H](Cc1ccc(-c2ccccc2)cc1)C(=O)O; Thr(3ξ) = CC(O)[C@H](N)C(=O)O; X1 = CC(C)CN1CCNC[C@H]1C(=O)*; Dab = NCC[C@H](N)C(=O)O; Dap = NC[C@H](N)C(=O)O

Experiments:
Format in all cases: cell-based
[1] = system: Acinetobacter baumannii
In short: (§1)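 Values are minimum inhibitory concentrations, reported in μg/mL. Compounds were tested for susceptibility against up to nine strains per organism, including resistant isolates.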

[2] = system: Escherichia coli
In short: as §1

[3] = system: Klebsiella pneumoniae
In short: as §1

[4] = system: Pseudomonas aeruginosa
In short: as §1

[5] = system: HK-2 cells
Excerpt: Values are reported relative to Polymyxin B.

[6] = system: Escherichia coli, Pseudomonas aeruginosa, Klebsiella pneumoniae and Acinetobacter baumannii; assay: Susceptibility testing, comparisons in words across the Gram negative pathogens; conditions: versus comparator compound
Procedure: To evaluate the potency and spectrum of the compounds, susceptibility testing was performed against up to nine strains of each of the Gram negative pathogens, Escherichia coli, Pseudomonas aeruginosa, Klebsiella pneumoniae and Acinetobacter baumannii.

## CC(C)C[C@@H]1NC(=O)[C@@H](Cc2ccc(-c3ccccc3)cc2)NC(=O)[C@H](CCN)NC(=O)[C@@H](NC(=O)[C@H](CN)NC(=O)[C@@H](NC(=O)[C@@H]2CNCCN2CC(C)C)C(C)O)CCNC(=O)[C@H]([C@@H](C)O)NC(=O)[C@H](CCN)NC(=O)[C@H](CCN)NC1=O (stereo partly shown) [Example 5] (X1-[Thr(3ξ)][Dap][Dab][Dab][dBip]L[Dab][Dab]T; lactam 3-C)
[1]
  MIC A. baumanii 053: 32 µg/mL (≈ 26.8 µM)
  MIC A. baumanii 056: 4 µg/mL (≈ 3.35 µM)
  MIC A. baumanii ATCC BAA-747: 0.125 µg/mL (≈ 0.105 µM)
[2]
  MIC E. coli 058: 1 µg/mL (≈ 0.838 µM)
  MIC E. coli 059: 1 µg/mL (≈ 0.838 µM)
  MIC E. coli 060: 2 µg/mL (≈ 1.68 µM)
  MIC E. coli 061: 8 µg/mL (≈ 6.7 µM)
  MIC E. coli ATCC 25922: 0.06 µg/mL (≈ 0.0503 µM)
[3]
  MIC K. pneumoniae 063: 16 µg/mL (≈ 13.4 µM)
  MIC K. pneumoniae 064: 4 µg/mL (≈ 3.35 µM)
  MIC K. pneumoniae 065: 0.5 µg/mL (≈ 0.419 µM)
  MIC K. pneumoniae 066: 8 µg/mL (≈ 6.7 µM)
  MIC K. pneumoniae 067: 32 µg/mL (≈ 26.8 µM)
  MIC K. pneumoniae ATCC 4352: 0.25 µg/mL (≈ 0.209 µM)
[4]
  MIC P. aeruginosa 068: 4 µg/mL (≈ 3.35 µM)
  MIC P. aeruginosa 070: 8 µg/mL (≈ 6.7 µM)
  MIC P. aeruginosa ATCC 27853: 0.5 µg/mL (≈ 0.419 µM)
[5]
  HK-2 IC50: 36 µg/mL
[6]
  activity against polymyxin resistant strains: significantly improves of activity against resistant strains
